Data taken from patent US10648038B2, “Biomarkers to identify patients that will respond to treatment and treating such patients” (Acetylon Pharmaceuticals, Inc., priority 2012, dated 2020).

Tested on: 65 cancer cell lines
Assay: Cell viability screening of a panel of 65 cancer cell lines, association with cancer type and gene mutation
Assay type: cell-based, human
Protocol: 65 cancer cell lines (including 12 of breast cancer, 11 of hematologic cancer, 9 of colorectal cancer, 6 of lung cancer, 6 of skin cancer, 4 brain cancer, 3 of renal cancer, 3 of liver cancer, 3 of prostate cancer, 3 of pancreatic cancer, 3 of ovarian cancer, and 2 of stomach cancer) were selected for analysis. Each of the cell lines was cultured and treated with the HDAC6 inhibitor, Compound A, with or without the proteasome inhibitor, bortezomib, before their cell viabilities were measured at the end of treatments. The sensitivities of the cell lines were described using the concentration of Compound A that provides 50% inhibition of cell viabilities (IC50). In all analyses, the logarithm of drug sensitivity values (i.e., Log [IC50]) was used, which is more normally distributed than the raw IC50 values. This is because most standard statistical tests (e.g., t-test and correlation analysis) assume the normal distribution of data points.
For the association tests of gene mutations, 50 common oncogene/tumor suppressor genes were selected to analyze the results. Mutation profiles of the cell lines were downloaded from the Sanger COSMIC DB on the Internet: www dot sanger dot ac dot uk/cosmic. For each gene locus, the “Fisher's Exact Test” was used to calculate statistical significance (p<0.05) of association between the genotype and the cell sensitivities to the treatments.

[1] = most cell lines of the panel, agent alone

O=C(CCCCCCNC(=O)c1cnc(N(c2ccccc2)c2ccccc2)nc1)NO [Compound A, 2-(diphenylamino)-N-(7-(hydroxyamino)-7-oxoheptyl)pyrimidine-5-carboxamide]
sensitivity of cell lines to treatment (cell viability) (a number of lymphoma and leukemia cell lines, single agent): substantial sensitivity | sensitivity of cell lines to treatment (cell viability) (breast cancer cell lines with Her2 protein overexpression (ERBB2 amplification), Fisher's Exact Test p<0.05): sensitive | sensitivity of cell lines to treatment (cell viability) (breast cancer cell lines, basal-type or triple negative, Fisher's Exact Test p<0.05): resistant | sensitivity of cell lines to treatment (cell viability) (cell lines for hematologic malignant cancer, Compound A alone): most sensitive | sensitivity of cell lines to treatment (cell viability) (lymphoma cells, compared with other cell groups of the 65 lines): most sensitive | sensitivity of cell lines to treatment (cell viability) [1]: resistant

CC(C)C[C@H](NC(=O)[C@H](Cc1ccccc1)NC(=O)c1cnccn1)B(O)O [bortezomib, reference compound]
sensitivity of cell lines to treatment (cell viability) [1]: resistant
